Assays:
[1] = target: T1, RORγ (UniProt P51449); assay type: cell-based; details: 293T cells, 16 h; for pIC50 (FF): firefly (FF) luciferase; for pIC50 (REN): renilla normalised (RENnorm) luciferase
T1 construct: hRORg-LBD|aa259-518|NP_005051.2; hRORgt|aa1-497|NP_001001523 (RORg, t isoform, 497aa); mRORg-LBD|aa264-516|NP_035411
T1 sequence (P51449 1-518): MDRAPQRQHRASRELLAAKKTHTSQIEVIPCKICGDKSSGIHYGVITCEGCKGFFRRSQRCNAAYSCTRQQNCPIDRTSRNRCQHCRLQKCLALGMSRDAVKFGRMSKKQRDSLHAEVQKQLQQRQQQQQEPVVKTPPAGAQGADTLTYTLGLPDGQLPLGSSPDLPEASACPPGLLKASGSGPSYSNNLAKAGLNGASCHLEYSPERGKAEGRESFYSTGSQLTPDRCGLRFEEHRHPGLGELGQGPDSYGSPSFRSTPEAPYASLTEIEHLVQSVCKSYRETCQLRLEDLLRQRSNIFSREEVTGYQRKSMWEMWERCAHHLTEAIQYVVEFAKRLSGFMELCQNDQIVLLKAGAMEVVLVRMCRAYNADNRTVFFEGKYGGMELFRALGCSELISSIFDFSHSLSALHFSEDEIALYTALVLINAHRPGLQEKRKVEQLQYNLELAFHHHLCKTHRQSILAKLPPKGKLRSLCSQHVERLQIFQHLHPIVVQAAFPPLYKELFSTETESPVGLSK
Experimental: Determination of a ligand mediated Gal4 promoter driven transactivation to quantify ligand binding to RORγ was performed as follows: DNA encoding three different RORγ. protein fragments was cloned into vector pCMV-BD (Stratagene). Expression was under control of a CMV promoter and as fusion to the DNA-binding domain of the yeast protein GAL4. Other vectors used were pFR-Luc (Stratagene) as regulated reporter plasmid. pFR-Luc contains a synthetic promoter with five tandem repeats of the yeast GAL4 binding sites that control expression of the Photinus pyralis (American firefly) luciferase gene. In order to improve experimental accuracy the plasmid pRL-CMV was cotransfected. pRL-CMV contains the constitutive CMV promoter, controlling the expression of the Renilla reniformis luciferase.
All Gal4 reporter gene assays were done in 293T cells (DSMZ (German Collection of Microorganisms and Cell Cultures), Braunschweig, Germany, ACC635) grown in Minimum Essential Medium (MEM) with Phenol Red. The medium is supplemented with 10% fetal bovine serum, 0.1 mM nonessential amino acids, 1 mM sodium pyruvate, 1% Glutamax and 100 units Penicilin/[…] per mL at 37° C. in 5% CO2.
For the assay, […] were plated per well in 96 well plates in 100 μL per well, incubated over night at 37° C. in 5% CO2. The following day, medium was discarded and the cells were transiently transfected using 20 μL per well of a OptiMEM—PEI-based transfection-reagent (Sigma-Aldrich, 408727) including the three plasmids described above. About 4 h after addition of the transfection solution, fresh Minimal Essential Medium (MEM, same composition as used for plating cells, but without serum) was added. Then compound stocks, prediluted in MEM (same composition as used for plating cells) were added (final vehicle concentration not exceeding 0.1%).
All experiments were done at least in triplicates.
It is understood that the data illustrated below may have reasonable variation depending on the specific conditions and procedures used by the person conducting the test.

[2] = target: T2, RORγ ligand binding domain (LBD) (Homo sapiens, UniProt P51449); experiment: TR-FRET Activity Assay (ligand sensing assay, RORγ-LBD / coactivator peptide interaction); assay type: biochemical
T2 construct: made in house; host or cells: E. coli BL-21 (BL3), vector pDEST15
T2 sequence (P51449 269-508 limits assumed): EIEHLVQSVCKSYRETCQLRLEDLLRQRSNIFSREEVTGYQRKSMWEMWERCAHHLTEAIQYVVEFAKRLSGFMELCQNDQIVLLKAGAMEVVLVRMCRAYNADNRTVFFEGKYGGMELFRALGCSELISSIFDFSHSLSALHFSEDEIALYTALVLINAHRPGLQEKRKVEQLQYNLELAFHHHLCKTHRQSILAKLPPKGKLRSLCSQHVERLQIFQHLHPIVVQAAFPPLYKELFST
Text: This method measures the ability of putative ligands to modulate the interaction between the purified bacterial expressed RORγ ligand binding domain (LBD) and synthetic N-terminally biotinylated peptides which are derived from nuclear receptor coactivator proteins such as but not limited to SRC1 (NcoA1), SRC2 (NcoA2, TIF2), SRC3 (NcoA3), PGC1α, PGC1β, CBP, GRIP1, TRAP220, RIP140.
The ligand-binding domain (LBD) of RORγ was expressed as fusion protein with GST in […] cells using the vector pDEST15. Cells were lysed by lysozyme-treatment and sonication, and the fusion proteins purified over glutathione sepharose (Pharmacia) according to the manufacturers instructions. For screening of compounds for their influence on the RORγ-peptide interaction, the LANCE technology (Perkin Elmer) was applied. This method relies on the binding dependent energy transfer from a donor to an acceptor fluorophor attached to the binding partner of interest. For ease of handling and reduction of background from compound fluorescence LANCE technology makes use of generic fluorophore labels and time resolved detection assays were done in a final volume of 25 μL in a 384 well plate, in a Tris-based buffer system (20 mM Tris-HCl pH6.8; 60 mM KCl, 1 mM DTT; 5 mM MgCl2; 35 ng/μL BSA), containing 20-60 ng/well recombinantly expressed RORγ-LBD fused to GST, 200-600 nM N-terminally biotinylated peptide, 200 ng/well Streptavidin-xIAPC conjugate (Prozyme) and 6-10 ng/well Eu W1024-antiGST (Perkin Elmer). DMSO content of the samples was kept at 1%.
After generation of the Tris-based buffer system, the potentially RORγ modulating ligands were diluted. […] The LANCE signal was detected by a Perkin Elmer EnVision™ Multilabel Counter. The results were visualized by plotting the ratio between the emitted light at 665 nm and 615 nm. […] Ligands that promote the complex formation induce a concentration-dependent increase in time-resolved fluorescent signal.
To assess the antagonistic potential of the compounds, IC50 values were determined using a Ligand Sensing Assay based on Time-resolved Fluorescence Energy Transfer (TR-FRET) as described above. The normalised TR-FRET assay values, using the following equation: 1000*665 nm measurement value/615 nm measurement value, were transferred to the program GraphPad Prism to generate graphs and dose response curves using the following equation: […]
This is identical to the “four parameter logistic equation”. The IC50 values are calculated using this equation. […] Is is understood that the data illustrated below may have reasonable variation depending on the specific conditions and procedures used by the person conducting the test.

Compound	pIC50 (FF) [1]	pIC50 (REN) [1]	IC50 [2] [µM]
CC(C)(C)NS(=O)(=O)c1ccc(-c2cc(C(=O)N[C@H]3C[C@H](C(=O)O)C3)nn2CC2CCCCC2)cc1C(F)(F)F [100/6]	6.3	6.3	0.316
CC(C)(C)NS(=O)(=O)c1ccc(-c2cc(C(=O)NCCC(C)(C)C(=O)O)nn2CC2CCCCC2)cc1C(F)(F)F [100/7]	6.2	6.3	1.26
CC(C)NC(=O)c1cc(CC2CCCCC2)n(-c2cc(C(C)(C)C)cc(C(C)(C)C)c2)n1 [102/2]	< 4.7	< 4.7	0.631
Cc1cc(-n2nc(C(=O)NC3CC3)cc2CC2CCCCC2)cc(C(C)(C)C)c1 [102/3]	5.7	6.1	3.16
CC(C)(C)c1cc(-n2nc(C(=O)NC3CCOCC3)c(Cl)c2CC2CCCCC2)cc(C(C)(C)C)c1 [103/2]	6.3	6.4	0.316
CC(C)(O)CNC(=O)c1nn(-c2cc(C(C)(C)C)cc(C(C)(C)C)c2)c(CC2CCCCC2)c1Cl [103/5]	6.2	6.3	0.316
CC(C)(C)c1cc(-n2nc(C(=O)NCc3ccno3)c(Cl)c2CC2CCCCC2)cc(C(C)(C)C)c1 [103/6]	6.1	6.2	0.631
CC(C)(C)c1cc(-n2nc(C(=O)NCc3cnco3)c(Cl)c2CC2CCCCC2)cc(C(C)(C)C)c1 [103/7]	6.3	6.3	0.251
CC(C)(C)c1cc(-n2nc(C(=O)NCc3ccn[nH]3)c(Cl)c2CC2CCCCC2)cc(C(C)(C)C)c1 [103/8]	< 4.7	< 4.7	0.794
COC(C)(C)c1cc(-n2nc(C(=O)NC3COC3)c(Cl)c2CC2CCCCC2)cc(C(C)(C)C)c1 [104/4]	6.6	6.6	0.631
CC(C)(C)NS(=O)(=O)c1ccc(-c2cc(C(=O)NC34CCC(C(=O)O)(CC3)CC4)nn2CC2CCCCC2)c(Cl)c1Cl [112/2]	6.9	7.0	0.794
Cc1c(C(=O)NC2CCOCC2)cc(-c2ccc(S(=O)(=O)NC(C)(C)C)c(C(F)(F)F)c2)n1CC(C)(C)C [302/2]	6.1	6.1	5.01
Cc1c(C(=O)NC2CCOCC2)cc(-c2ccc(S(=O)(=O)NC(C)(C)C)c(C(F)(F)F)c2)n1CC1COC1 [302/3]	6.3	6.2	15.8
Cc1c(C(=O)NC2CCOCC2)cc(-c2ccc(S(=O)(=O)NC(C)(C)C)c(C(F)(F)F)c2)n1CC1CCOC1 (stereo not drawn) [302/4]	< 4.7	< 4.7	3.98
Cc1c(C(=O)NC2CCOCC2)cc(-c2ccc(S(=O)(=O)NC(C)(C)C)c(C(F)(F)F)c2)n1CC1CCCOC1 (stereo not drawn) [302/5]	6.2	6.3	0.794
Cc1c(C(=O)NC2CCOCC2)cc(-c2ccc(S(=O)(=O)NC(C)(C)C)c(C(F)(F)F)c2)n1C1CCCCC1 [302/6]	6.5	6.7	1
CC(C)(C)c1cc(-c2nc(C(N)=O)nn2CC2CCCCC2)cc(C(C)(C)C)c1 [308/1]	6.0	6.0	2.51
CC(C)(C)c1cc(-c2nc(C(=O)NC3CC3)nn2CC2CCCCC2)cc(C(C)(C)C)c1O [308/2]	6.2	6.3	0.631
CC(C)(C)c1cc(-c2nc(C(=O)NC3COC3)nn2CC2CCCCC2)cc(C(C)(C)C)c1O [308/3]	6.3	6.4	0.794
CC(C)(C)c1cc(-c2nc(C(=O)NC3CCOCC3)nn2CC2CCCCC2)cc(C(C)(C)C)c1O [308/4]	6.3	6.4	1
CC(C)(O)CNC(=O)c1nc(-c2cc(C(C)(C)C)c(O)c(C(C)(C)C)c2)n(CC2CCCCC2)n1 [308/6]	6.5	6.5	1
C[C@@H](O)CNC(=O)c1nc(-c2cc(C(C)(C)C)c(O)c(C(C)(C)C)c2)n(CC2CCCCC2)n1 [308/7]	5.7	5.9	2.51
C[C@H](O)CNC(=O)c1nc(-c2cc(C(C)(C)C)c(O)c(C(C)(C)C)c2)n(CC2CCCCC2)n1 [308/8]	6.2	6.3	1.58
CC(C)(C)NS(=O)(=O)c1ccc(-c2nc(C(=O)NC3CCOCC3)nn2CC2CCCCC2)cc1C(C)(C)C [308/9]	5.6	5.6	7.94
CC(C)(C)NS(=O)(=O)c1ccc(-c2nc(C(=O)N[C@H]3C[C@H](C(=O)O)C3)nn2CC2CCCCC2)cc1C(C)(C)C [308/10]	< 4.7	< 4.7	6.31
Cc1cc(-n2nc(C(N)=O)cc2CC2CCCCC2)cc(C(C)(C)C)c1 [312/2]	< 4.7	< 4.7	7.94
Cc1c(C(=O)NCC(C)(C)O)cn(-c2cc(C(C)(C)C)cc(C3(C)CC3)c2)c1CC1CCCCC1 [Example 1/1]	7.4	7.5	0.2
Cc1c(C(=O)NC2CCOCC2)cn(-c2cc(Br)cc(C(C)(C)C)c2)c1C=C1CCCCC1 [Example 2, 1-(3-Bromo-5-(tert-butyl)phenyl)-5-(cyclohexylidenemethyl)-4-methyl-N-(tetrahydro-2H-pyran-4-yl)-1H-pyrrole-3-carboxamide]	6.4	6.5	1.26
